{"source": "patent US20200354327A1", "about": "“COMPOUND HAVING STAT3 INHIBITORY ACTIVITY AND USE THEREOF” (CYTUS H&B CO., LTD., priority 2017, published 2020)", "key": {"MMP-2": {"test_system": "MMP-2", "experiment": "Activity of MMP-2 in U87-MG and MDA-MB-231 cells", "type": "cell-based, human", "conditions": "U87-MG and MDA-MB-231, 24 hours"}, "Bcl-2 and Bcl-XL": {"test_system": "Bcl-2 and Bcl-XL", "experiment": "Real-time polymerase chain reaction of anti-apoptotic genes", "type": "cell-based, human", "procedure": "(§1) RNA isolation and real-time polymerase chain reaction were performed as described previously (Jung J E, et al. FASEB J. 19, 1296-1298 (2005)). Primer specific for human-derived Bcl-XL, Bcl-2, Twist, and GADPH genes were mixed with QuantiFast SYBR Green PCR master mix, and each gene was amplified using the Applied Biosystems 7300 real-time PCR system to compare the expression level."}, "MDA-MB-231 cells [1]": {"test_system": "MDA-MB-231 cells", "experiment": "Wound healing assay, MDA-MB-231", "type": "cell-based, human", "conditions": "MDA-MB-231, 24 hours", "procedure": "(§2) Wound healing assay was performed as previously described (Jung J E, et al. FASEB J. 19, 1296-1298 (2005)). The respective cells were dispensed into a 12-well plate (U87-MG: 5×10^5 cells/ml; MDA-MB-231: 3×10^5 cells/ml) and cultured until the cells proliferated 90% or more. Cells scraped off from the plate with the tip of the pipette were washed two times with PBS. After 24 hours, the proliferation (invasion) of cells at the part from which the cells were had been removed was observed under a microscope, and images were taken."}, "U87-MG cells [2]": {"test_system": "U87-MG cells", "experiment": "Wound healing assay, U87-MG", "type": "cell-based, human", "conditions": "24 hours", "procedure": "as §2"}, "[3]": {"test_system": "human malignant glioblastoma", "experiment": "Cell viability of human malignant glioblastoma with or without IL-6", "type": "cell-based", "conditions": "treated with IL-6 for 24 or 48 hours or not; various concentrations"}, "MDA-MB-231 cells [4]": {"test_system": "MDA-MB-231 cells", "experiment": "Cell proliferation assay, MDA-MB-231", "type": "cell-based, human", "conditions": "MDA-MB-231, by time period, versus DMSO", "procedure": "(§3) Cell proliferation assay was performed as previously described (Won C, et al. Anticancer Res. 30, 481-488 (2010)). In order to analyze the cell proliferation rate, U87-MG and MDA-MB-231 cell lines were dispensed into a 6-well culture dish, then treated with DMSO and ODZ10117 the next day, and stained with crystal violet after 0 h, 24 h, 48 h, and 72 h, and the number of live cells was calculated using a hemocytometer."}, "STAT3 [5]": {"test_system": "STAT3", "experiment": "Western blot analysis of the 13 selected compounds", "type": "cell-based", "conditions": "among the 13 selected compounds", "procedure": "(§4) Western blot analysis was performed (Jung J E, et al. FASEB J. 19, 1296-1298 (2005)). The cells were washed two times with PBS and suspended in the lysate (50 mM Tris-HCl, pH 7.4, 350 mM NaCl, 1% Triton X-100, 0.5% Nonidet P-40, 10% glycerol, 0.1% SDS, 1 mM EDTA, 1 mM EGTA, 1 mM Na3VO4, 1 mM PMSF, protease and phosphorylation inhibitor) and the cell membrane and nuclear membrane were crushed to lyse the cells. The insoluble protein fraction was removed by centrifugation, and the supernatant was mixed with SDS electrophoresis buffer and electrophoresis (SDS-PAGE) was performed to detect the protein with the desired antibody and to confirm the protein expression level."}, "U87-MG cells [6]": {"test_system": "U87-MG cells", "experiment": "Human tumor cell xenograft, U87-MG", "type": "in vivo, BALB/c nude mice", "conditions": "injected directly into the tumor, versus DMSO", "procedure": "Male Nude Mouse (BALB/cAnNCrj-nu/nu) was purchased from Charles River Japan Inc. (Shin-Yokohama, Japan). The mouse was bred in a clean room in which the temperature and humidity were constantly controlled. The breeding process was carried out according to the method described in the manual for maintenance of laboratory animals in Seoul National University. U87-MG cells or MDA-MB-231 cells were diluted with PBS, suspended in 100 μl of Matrigel at 25% concentration, and injected into the back of mouse and bred for 6 to 10 weeks. Human tumor growth was measured every other day using a vernier caliper from 2 weeks after cell injection. With regard to the degree of inhibition of human tumor cell formation, 40 μM of ODZ10117 was directly injected into the human tumor on days 0, 3, and 5 from week 4 of tumor cell injection. On the 7th day, the mouse was sacrificed to separate the tumor, and the tumor cell inhibitory efficacy of the drug was measured by being compared with that of the control group treated with 1% DMSO."}, "STAT3 [7]": {"target": "T1, STAT3 (Homo sapiens, UniProt P40763)", "experiment": "Western blot in human malignant breast cancer cell lines", "type": "cell-based", "set-up": "endogenous in cells; host or cells: L540, HDLM-2, U87-MG, MDA-MB-231, further human glioblastoma and breast cancer lines", "procedure": "as §4"}, "Twist": {"test_system": "Twist", "experiment": "Expression of Twist in U87-MG and MDA-MB-231 cells", "type": "cell-based, human", "conditions": "U87-MG and MDA-MB-231, 24 hours", "procedure": "as §1"}, "STAT3 [8]": {"target": "T1, STAT3", "experiment": "Nuclear translocation of STAT3 (fluorescence microscope)", "type": "cell-based", "set-up": "endogenous in cells; host or cells: L540, HDLM-2, U87-MG, MDA-MB-231, further human glioblastoma and breast cancer lines", "conditions": "compared with the control group"}, "caspase-3 and PARP": {"test_system": "caspase-3 and PARP", "experiment": "Western blot of caspase-3 and PARP", "type": "cell-based, human", "procedure": "as §4"}, "STAT3 [9]": {"target": "T1, STAT3", "experiment": "STAT3 dimerization (STAT3-Flag / STAT3-HA, immunoprecipitation and western blot in HEK293T)", "type": "cell-based", "set-up": "Flag; HA; expressed in transfected cells; host or cells: HEK293T"}, "U87-MG cells [10]": {"test_system": "U87-MG cells", "experiment": "Cell proliferation assay, U87-MG", "type": "cell-based, human", "conditions": "by time period, versus DMSO", "procedure": "as §3"}, "MDA-MB-231 cells [11]": {"test_system": "MDA-MB-231 cells", "experiment": "Matrigel invasion assay, MDA-MB-231", "type": "cell-based, human", "conditions": "MDA-MB-231, 24 hours, versus DMSO", "procedure": "The growth factor-reduced Matrigel was diluted with a serum-free culture solution at a 1:3 ratio, transferred to a 24-well plate, and solidified at 37° C. for 5 hours. The cells were placed in a culture solution containing 1% serum and added to the solidified Matrigel, 600 μl of a culture solution containing 10% serum to which fibronectin was added at a concentration of […] was added thereto, and the cells were cultured for 24 hours. Thereafter, the cells were fixed and stained by adding Diffquick solution thereto and then observed under a Leica Application Suite microscope, and images were taken."}}}
{"smiles": "Clc1ccc(OCc2noc(C(Cl)(Cl)Cl)n2)c(Cl)c1", "note": "[ODZ10117, 3-(2,4-dichloro-phenoxymethyl)-5-trichloromethyl-[1,2,4]oxadiazole]", "values": [{"measurement": "activity of MMP-2", "setting": "MMP-2", "result": "significantly decreased"}, {"measurement": "expression levels of anti-apoptotic genes Bcl-2 and Bcl-XL", "setting": "Bcl-2 and Bcl-XL", "result": "effectively inhibited the expression of these genes"}, {"measurement": "cell migration", "setting": "MDA-MB-231 cells [1]", "result": "significantly inhibited the migration of these cells"}, {"measurement": "cell migration", "setting": "U87-MG cells [2]", "result": "significantly inhibited the migration of these cells"}, {"measurement": "cell survival", "setting": "[3]", "result": "cell survival was inhibited"}, {"measurement": "cell proliferation", "setting": "MDA-MB-231 cells [4]", "result": "effectively inhibited the proliferation of the two cell lines"}, {"measurement": "STAT3 inhibitory action (Western blot)", "setting": "STAT3 [5]", "result": "judged to be extremely superior"}, {"measurement": "tumor growth", "setting": "U87-MG cells [6]", "result": "significantly inhibited tumor growth"}, {"measurement": "STAT3 inhibitory efficacy compared with napabucasin", "setting": "STAT3 [7]", "result": "STAT3 inhibitory efficacy similar to that of napabucasin at high concentrations"}, {"measurement": "phosphorylation of tyrosine 705 of STAT3", "setting": "STAT3 [7]", "result": "inhibited the phosphorylation of tyrosine 705 of STAT3 in human malignant breast cancer cell lines in a concentration-dependent manner"}, {"measurement": "time to complete inhibition of phosphorylation of STAT3 after treatment", "setting": "STAT3 [7]", "result": "≤ 2", "unit": "h"}, {"measurement": "STAT3 inhibitory efficacy compared with known inhibitors", "setting": "STAT3 [7]; versus NSC628869 and NSC74859", "result": "superior STAT3 inhibitory efficacy to NSC628869 and NSC74859"}, {"measurement": "expression of Twist", "setting": "Twist", "result": "significantly decreased"}, {"measurement": "nuclear translocation of STAT3", "setting": "STAT3 [8]", "result": "further inhibited nuclear translocation of STAT3"}, {"measurement": "amount of fragmented caspase-3 and PARP proteins", "setting": "caspase-3 and PARP", "result": "significantly increased the amount of fragmented caspase-3 and PARP proteins"}, {"measurement": "STAT3 dimerization", "setting": "STAT3 [9]", "result": "inhibited STAT3 dimerization"}, {"measurement": "STAT3 dimerization inhibitory efficacy compared with napabucasin", "setting": "STAT3 [9]", "result": "superior STAT3 dimerization inhibitory efficacy to napabucasin"}, {"measurement": "cell proliferation", "setting": "U87-MG cells [10]", "result": "effectively inhibited the proliferation of the two cell lines"}, {"measurement": "cell invasion", "setting": "MDA-MB-231 cells [11]", "result": "significantly decreased cell invasion in both the two cell lines"}]}
